Data set [1] deals with Mus musculus. Put plainly: Anorectic activity in C57BL/6J mouse assessed as inhibition of food intake at 30 nmol/kg, sc qd for 3 days relative to control. Particulars: 72 h. The data set is classed as functional.
In data set [2] the target is T1, Neuropeptide Y receptor type 2 (Homo sapiens, UniProt P49146).
T1 sequence (P49146 whole entry): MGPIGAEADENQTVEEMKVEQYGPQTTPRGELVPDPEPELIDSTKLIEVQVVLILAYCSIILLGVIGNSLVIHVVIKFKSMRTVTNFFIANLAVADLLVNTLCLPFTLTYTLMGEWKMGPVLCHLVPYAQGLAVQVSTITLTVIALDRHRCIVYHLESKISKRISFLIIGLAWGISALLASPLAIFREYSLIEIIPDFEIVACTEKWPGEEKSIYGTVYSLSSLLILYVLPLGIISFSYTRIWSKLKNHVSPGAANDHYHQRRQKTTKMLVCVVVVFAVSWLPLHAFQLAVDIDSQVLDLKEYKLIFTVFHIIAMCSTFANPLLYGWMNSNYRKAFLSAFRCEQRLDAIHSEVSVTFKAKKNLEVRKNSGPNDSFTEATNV
Put plainly: Displacement of [125I]-PYY from human neuropeptide Y2 receptor expressed in CHO cell membranes incubated for 60 mins by TopCount micro scintillation analysis. On the technique in general: Loss of bound radioactivity is the signal in a displacement assay; it reports binding, not function.

Data set [3] can be described thus: Solubility of the compound in water. The data set is classed as physicochemical. The following applies: buffer.
The subject of data set [4] is Mus musculus. Put plainly: Antiobesity activity in DIO C57BL/6J mouse assessed as reduction in body weight at 30 nmol/kg, sc qd for 2 weeks. In kind it is functional. Also noted: scale not given: the % may be the effect or the level left.
Data set [5] has as its system Mus musculus. Put plainly: Antiobesity activity in DIO C57BL/6J mouse assessed as reduction in body weight at 10 nmol/kg, sc qd for 2 weeks. In kind it is functional. Details: scale not given: the % may be the effect or the level left.

SMILES strings stand for the structures.

On to `CC[C@](C)(NC(=O)[C@H]1C[C@H](O)CN1C(=O)[C@H](CO)NC(=O)c1c[nH]cn1)C(=O)N[C@@H](Cc1ccncc1)C(=O)N[C@@H](CC1CCCCC1)C(=O)N[C@@H](CC(C)(C)C)C(=O)N[C@@H](CC(N)=O)C(=O)N[C@@H](CCCCNC(=O)COCC(=O)NCCCOCCOCCOCCCNC(=O)CC[C@H](NC(=O)[C@H]1CC[C@H](CNC(=O)CCCCCCCCCCCCCCCCCCC(=O)O)CC1)C(=O)O)C(=O)NC(C)(C)C(=O)N[C@H](C(=O)N[C@@H](CCCNC(=N)N)C(=O)N[C@@H](CCC(N)=O)C(=O)N[C@@H](CCCNC(=N)N)C(=O)N[C@@H](CC1CCCCC1)C(N)=O)[C@@H](C)O`, for which the inhibition in vivo (in general, the share of the control response that was lost under treatment) at 0.03 µmol/kg in the data set on Mus musculus [1] worked out at 30%. In addition, in data set [2], the IC50 (usually the midpoint of a concentration-inhibition curve) was 24 nM.
Consider `CC[C@](C)(NC(=O)[C@H]1C[C@H](O)CN1C(=O)[C@H](CO)NC(=O)c1c[nH]cn1)C(=O)N[C@@H](Cc1ccncc1)C(=O)N[C@@H](CC1CCCCC1)C(=O)N[C@@H](CC(C)(C)C)C(=O)N[C@@H](CC(N)=O)C(=O)N[C@@H](CCCCNC(=O)[C@@H](N)CCCCNC(=O)COCC(=O)NCCCOCCOCCOCCCNC(=O)CC[C@H](NC(=O)[C@H]1CC[C@H](CNC(=O)CCCCCCCCCCCCCCCCCCC(=O)O)CC1)C(=O)O)C(=O)NC(C)(C)C(=O)N[C@H](C(=O)N[C@@H](CCCNC(=N)N)C(=O)N[C@@H](CCC(N)=O)C(=O)N[C@@H](CCCNC(=N)N)C(=O)N[C@@H](CC1CCCCC1)C(N)=O)[C@@H](C)O`, for which, in the data set on Mus musculus [1], the inhibition in vivo at 0.03 µmol/kg came out at 67%. This compound also registered an IC50 in data set [2] of 13 nM. For the same compound, the solubility result in data set [3] is given as “Insoluble”.
For the compound `CC[C@](C)(NC(=O)[C@H]1C[C@H](O)CN1C(=O)[C@H](CO)NC(=O)COCC(=O)NCCCOCCOCCOCCCNC(=O)CC[C@H](NC(=O)[C@H]1CC[C@H](CNC(=O)CCCCCCCCCCCCCCCCCCC(=O)O)CC1)C(=O)O)C(=O)N[C@@H](Cc1ccncc1)C(=O)N[C@@H](CC1CCCCC1)C(=O)N[C@@H](CC(C)(C)C)C(=O)N[C@@H](CC(N)=O)C(=O)N[C@@H](CCCCNC(C)=O)C(=O)NC(C)(C)C(=O)N[C@H](C(=O)N[C@@H](CCCNC(=N)N)C(=O)N[C@@H](CCC(N)=O)C(=O)N[C@@H](CCCNC(=N)N)C(=O)N[C@@H](CC1CCCCC1)C(N)=O)[C@@H](C)O`, the inhibition in vivo at 0.03 µmol/kg in the data set with Mus musculus [1] is 43%. In data set [2], this compound returned an IC50 of 7.6 nM. In addition, the Activity with Mus musculus [4] is -6.1%.
Turning to `C[C@@H](O)[C@H](NC(=O)C(C)(C)NC(=O)[C@H](CCCCNC(=O)C1CCNCC1)NC(=O)[C@H](CC(N)=O)NC(=O)C(C)(C)NC(=O)[C@H](CC1CCCCC1)NC(=O)[C@H](Cc1ccncc1)NC(=O)[C@H](CCCNC(=N)N)NC(=O)[C@H]1C[C@H](O)CN1C(=O)[C@H](CO)NC(=O)COCC(=O)NCCCOCCOCCOCCCNC(=O)CC[C@H](NC(=O)[C@H]1CC[C@H](CNC(=O)CCCCCCCCCCCCCCCCCCC(=O)O)CC1)C(=O)O)C(=O)N[C@@H](CCCNC(=N)N)C(=O)N[C@@H](CCC(N)=O)C(=O)N[C@@H](CCCNC(=N)N)C(=O)N[C@@H](CC1CCCCC1)C(N)=O`, the inhibition in vivo at 0.03 µmol/kg in the data set on Mus musculus [1] worked out at 67.3%. Further, in data set [2], the IC50 was 4.5 nM. Besides, the Activity is reported as -11.6% in the data set on Mus musculus [5] and -17.2% in the data set on Mus musculus [4].
For `CC[C@](C)(NC(=O)[C@H]1C[C@H](O)CN1C(=O)[C@H](CO)NC(=O)COCC(=O)NCCCOCCOCCOCCCNC(=O)CC[C@H](NC(=O)[C@H]1CC[C@H](CNC(=O)CCCCCCCCCCCCCCCCCCC(=O)O)CC1)C(=O)O)C(=O)N[C@@H](Cc1ccncc1)C(=O)N[C@@H](CC1CCCCC1)C(=O)N[C@@H](CC(C)(C)C)C(=O)N[C@@H](CC(N)=O)C(=O)N[C@@H](CCCCN)C(=O)NC(C)(C)C(=O)N[C@H](C(=O)N[C@@H](CCCNC(=N)N)C(=O)N[C@@H](CCC(N)=O)C(=O)N[C@@H](CCCNC(=N)N)C(=O)N[C@@H](CC1CCCCC1)C(N)=O)[C@@H](C)O`, in the data set on Mus musculus [1], the inhibition in vivo at 0.03 µmol/kg was found to be 47.8%. In data set [2], this compound came in with an IC50 of 13 nM. In addition, in the data set on Mus musculus [4], the Activity is -15.1%.
With `CCCCCCCCCCCCCCCC(=O)NC[C@H]1CC[C@H](C(=O)N[C@@H](CCC(=O)NCCCOCCOCCOCCCNC(=O)COCC(=O)NCCCC[C@H](N)C(=O)NCCCC[C@H](NC(=O)[C@H](CC(N)=O)NC(=O)C(C)(C)NC(=O)[C@H](CC2CCCCC2)NC(=O)[C@H](Cc2ccncc2)NC(=O)[C@H](CCCNC(=N)N)NC(=O)[C@H]2C[C@H](O)CN2C(=O)[C@H](CO)NC(=O)c2c[nH]cn2)C(=O)NC(C)(C)C(=O)N[C@H](C(=O)N[C@@H](CCCNC(=N)N)C(=O)N[C@@H](CCC(N)=O)C(=O)N[C@@H](CCCNC(=N)N)C(=O)N[C@@H](CC2CCCCC2)C(N)=O)[C@@H](C)O)C(=O)O)CC1`, in the data set with Mus musculus [1], the inhibition in vivo at 0.03 µmol/kg was 36%. In data set [2], this compound gave an IC50 of 0.19 nM.
As for `C[C@@H](O)[C@H](NC(=O)C(C)(C)NC(=O)[C@H](CCCCNC(=O)[C@@H](N)CCCCNC(=O)COCC(=O)NCCCOCCOCCOCCCNC(=O)CC[C@H](NC(=O)[C@H]1CC[C@H](CNC(=O)CCCCCCCCCCCCCCCCCCC(=O)O)CC1)C(=O)O)NC(=O)[C@H](CC(N)=O)NC(=O)[C@H](CC(C)(C)C)NC(=O)[C@H](CC1CCCCC1)NC(=O)[C@H](Cc1ccncc1)NC(=O)[C@H](CCCNC(=N)N)NC(=O)[C@H]1C[C@H](O)CN1C(=O)[C@H](CO)NC(=O)c1c[nH]cn1)C(=O)N[C@@H](CCCNC(=N)N)C(=O)N[C@@H](CCC(N)=O)C(=O)N[C@@H](CCCNC(=N)N)C(=O)N[C@@H](CC1CCCCC1)C(N)=O`, the inhibition in vivo at 0.03 µmol/kg in the data set on Mus musculus [1] was determined as 58%. The same compound gave an IC50 in data set [2] of 3.4 nM. Also, the Activity in the data set with Mus musculus [4] is given as -23.1%. For the same compound, in data set [3], the solubility entry is “Soluble”.
For `CC[C@](C)(NC(=O)[C@H]1C[C@H](O)CN1C(=O)[C@H](CO)NC(=O)COCC(=O)NCCCOCCOCCOCCCNC(=O)CC[C@H](NC(=O)[C@H]1CC[C@H](CNC(=O)CCCCCCCCCCCCCCCCCCC(=O)O)CC1)C(=O)O)C(=O)N[C@@H](Cc1ccncc1)C(=O)N[C@@H](CC1CCCCC1)C(=O)N[C@@H](CC(C)(C)C)C(=O)N[C@@H](CC(N)=O)C(=O)N[C@@H](CCCCNC(=O)C1CCNCC1)C(=O)NC(C)(C)C(=O)N[C@H](C(=O)N[C@@H](CCCNC(=N)N)C(=O)N[C@@H](CCC(N)=O)C(=O)N[C@@H](CCCNC(=N)N)C(=O)N[C@@H](CC1CCCCC1)C(N)=O)[C@@H](C)O`, the inhibition in vivo at 0.03 µmol/kg with Mus musculus [1] turned out to be 52.8%. In data set [2], this compound came in with an IC50 of 7.6 nM. Besides, in the data set on Mus musculus [4], the Activity is recorded as -22.3%.

The values are drawn from ChEMBL document CHEMBL4219053, “Antiobesity and emetic effects of a short-length peptide YY analog and its PEGylated and alkylated derivatives” (Bioorg Med Chem, 2018).
